Measurements: paper PMC12091851, “Replacing a Cereblon Ligand by a DDB1 and CUL4 Associated Factor 11 (DCAF11) Recruiter Converts a Selective Histone Deacetylase 6 PROTAC into a Pan‐Degrader” (Chemmedchem, 2025)

Target: T1, HDAC6 (Homo sapiens, UniProt Q9UBN7)
T1 sequence (Q9UBN7 1-1215): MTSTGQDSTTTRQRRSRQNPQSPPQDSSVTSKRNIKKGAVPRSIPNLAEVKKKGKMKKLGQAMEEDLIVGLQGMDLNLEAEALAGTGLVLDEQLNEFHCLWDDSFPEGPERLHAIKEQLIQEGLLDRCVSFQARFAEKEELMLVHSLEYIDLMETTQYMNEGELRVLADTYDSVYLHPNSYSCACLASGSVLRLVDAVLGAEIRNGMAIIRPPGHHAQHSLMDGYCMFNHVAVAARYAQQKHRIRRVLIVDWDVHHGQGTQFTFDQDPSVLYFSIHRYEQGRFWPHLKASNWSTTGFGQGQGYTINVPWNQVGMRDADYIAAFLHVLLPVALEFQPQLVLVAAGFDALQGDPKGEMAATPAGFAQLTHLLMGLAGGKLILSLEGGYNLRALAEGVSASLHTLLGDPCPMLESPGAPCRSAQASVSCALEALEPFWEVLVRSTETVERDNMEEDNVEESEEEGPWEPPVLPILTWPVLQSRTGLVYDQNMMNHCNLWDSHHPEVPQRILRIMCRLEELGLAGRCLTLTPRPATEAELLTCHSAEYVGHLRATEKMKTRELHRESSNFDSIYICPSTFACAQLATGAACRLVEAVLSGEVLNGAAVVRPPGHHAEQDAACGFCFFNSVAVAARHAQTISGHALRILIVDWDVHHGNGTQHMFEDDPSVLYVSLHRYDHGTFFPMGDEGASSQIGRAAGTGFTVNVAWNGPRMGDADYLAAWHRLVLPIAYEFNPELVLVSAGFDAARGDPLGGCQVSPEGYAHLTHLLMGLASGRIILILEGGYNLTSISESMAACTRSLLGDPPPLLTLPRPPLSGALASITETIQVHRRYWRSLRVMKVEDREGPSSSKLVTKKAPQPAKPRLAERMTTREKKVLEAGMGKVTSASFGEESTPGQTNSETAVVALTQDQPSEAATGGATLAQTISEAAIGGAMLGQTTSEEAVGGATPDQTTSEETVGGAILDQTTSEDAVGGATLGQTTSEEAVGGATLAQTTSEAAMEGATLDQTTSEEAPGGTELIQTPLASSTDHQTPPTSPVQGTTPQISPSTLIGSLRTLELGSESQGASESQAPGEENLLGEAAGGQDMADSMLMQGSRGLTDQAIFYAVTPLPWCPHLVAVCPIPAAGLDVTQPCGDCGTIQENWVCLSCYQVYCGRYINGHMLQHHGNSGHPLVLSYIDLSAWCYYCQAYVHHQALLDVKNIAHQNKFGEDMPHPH
Assay: Simple Western immunoassay, HDAC6 levels in U-87MG cell lysates
Type: cell-based
Design: endogenous in cells; host or cells: MM.1S
Details: 10 μM, 24 h
Description: Figure S5. Analysis of HDAC1 and 6 degradation in U-87MG cells. Simple western immunoassay analysis of U-87MG cell lysates. The cells were treated with the indicated compound (10 µM) or vehicle (DMSO) for 24 h. Top: Quantification of HDAC levels, presented as mean ± standard deviation of n = 2 biological replicates; Significance compared to vehicle: ns = p≥0.05 and *** = p≤0.001. Bottom:
Representative images of n = 2 biological replicates.
(1 picture or pasted object on this page, not shown here)
2. Biological Experiments
No unexpected or unusually high safety hazards were encountered.
The human multiple myeloma cell line MM.1S (CRL-2974) was obtained from American Type Culture Collection (ATCC, Manassas, VA, USA). […]
Louis, MO, USA) according to manufacturer´s instructions. Protein content was determined by Pierce™ BCA Protein Assay Kit (Catalog# 23225, Thermo Fisher Scientific Inc.) according to manufacturer´s guidelines. […]
Fluorescence Separation 8x25 Capillary Cartridges (Catalog# SM-FL004-1, Protein Simple, Bio-Techne, Minneapolis, MN, USA) were used for separation and the Anti-Mouse Detection Module (Catalog# DM-002, Protein Simple) was used for detection with addition of 20x Anti-Rabbit HRP […]
Conjugate (Catalog# 043-426, Protein Simple) according to manufacturer´s instructions. […] Evaluation and quantification was performed with the compass software (6.2.0, Protein Simple). […]

HDAC6 degradation in U-87MG cells: significant HDAC1 and 6 degradation
SMILES: O=C(CCCCCCNC(=O)c1ccc(NC(=O)CCCCCCCCCCCN(C(=O)CCl)C(C(=O)NCc2ccccc2)c2ccc(Cl)c(Cl)c2)cc1)NO (stereo not shown) [Compound 1j]
